Consider 2 compounds from paper PMC7998974, “Enhanced Efficacy of Thiosemicarbazone Derivative-Encapsulated Fibrin Liposomes against Candidiasis in Murine Model” (Pharmaceutics, 2021).

Each structure is given as a SMILES string. ≈ marks a conversion by molar mass, not a printed value.

The test system of one series is C. albicans (ATCC 18804). Kind of series: Minimum inhibitory concentration by broth microdilution. Format: cell-based. The settings on record: Candida albicans, ATCC18804, 50% inhibition of growth, RPMI 1640, 24 h, 37 °C, formulation weight for formulations. In general terms: Broth dilution looks for growth in wells or tubes with falling amounts of substance.
On the set-up of series [1]: method as in PMID 26457700. The settings on record: solubility checked earlier; cited from earlier work.
The test system of a further series is non-cancer cell lines. Further details: method as in PMID 24513049. The settings on record: cited from earlier work.
The nature of series [2]: Determination of 2C dose (LD50) in healthy mice. Format: in vivo. The method, then: The dose of 2C for the antifungal treatment in vivo was determined according to the already published report. Five groups (n = 5/group) comprising healthy mice were intraperitoneally injected with different doses of 2C. Mice of the sixth group (control group) were intraperitoneally injected with PBS.

Series [3] can be described thus: Histopathological examination of liver and kidney sections. The conditions noted are these: healthy mice, H&E, 200X. The series is classed as in vivo. The method, then:
(§1) For in vivo toxicity, renal and hepatic toxicities were evaluated in healthy mice. According to the method of Khan et al., [39], a three-dose regimen of 400 µg formulation/dose/mouse was intraperitoneally given on the 1st, 3rd, and 5th days. Blood samples from different treatment groups were taken as pre-dose (a day before the administration of the formulation) and post-dose (the 6th day of the administration of the formulation). The levels of serum creatinine, ALT, and total bilirubin were evaluated by employing a commercial detection kit. Results are expressed as the mean ± SD of three independent experiments. Moreover, the extent of toxicity of 2C-FL was determined on liver and kidney histopathology.
Briefly, the fixed tissues were dehydrated and embedded in paraffin wax. […] Next, paraffin from the sections was removed by three consecutive washings in xylol. The sections were then […] in series of alcohol grades (70–100%), and, finally, the sections were stained with hematoxylin and eosin and visualized under a light microscope (Olympus CLX 41) at 200X magnification.

A short description of series [4]: Erythrocyte lysis test (in vitro toxicity). The series is classed as cell-based. The settings on record: rabbit erythrocytes (0.2% RBC suspension), pH 7.4, dose of 10 mg/L, 37 °C, read-out: hemolytic ability to erythrocytes (percent hemolysis). The method, then:
The in vitro toxicity of free 2C and 2C-FL was determined using the previously published method of erythrocyte lysis test. Briefly, blood samples from a healthy rabbit were collected in an anticoagulant solution. The samples were centrifuged at 4 °C, the pellet containing erythrocytes was washed with PBS (pH 7.4), and, finally, 50% hematocrit was prepared. […] The hemolytic effects were evaluated by visible spectroscopy at 576 nm, and percent hemolysis was calculated. The 100% hemolytic ability of Triton X-100 was taken as the positive control. Results are expressed as the mean ± SD of three independent experiments.

Series [5] has as its system C. albicans. Kind of series: Survival of C. albicans-infected mice. The conditions noted are these: 2 mg 2C/kg b.w. for five days. Format: in vivo, Swiss albino mice. The method, then:
The antifungal activity of 2C-FL was determined in a mouse model with C. albicans infection. For infection, healthy mice were infected with an inoculum of 100 µL saline containing 5 × 10^5 CFU of C. albicans per mouse by an intravenous route in the lateral tail vein. One day post-infection, the mice were randomly distributed into six groups (n = 10/group) and treated with formulations (2 mg 2C/kg b.w.) for five days. […] A simultaneous set of experiments was conducted for the survival studies.
The antifungal ability of 2C-FL was also determined by evaluating the survival rate of the treated mice. The study was conducted for 60 days, during which mice were monitored for mortality twice each day and results were scored.

The test system of series [6] is C. albicans. Nature of the series: Annexin-V assay for detecting apoptosis. The series is classed as cell-based, Candida albicans. The conditions noted are these: annexin V-FITC/PI flow cytometry. The method, then: The therapeutic effect of 2C-FL against fungal infection was done by detecting the presence of apoptosis markers in C. albicans, as mentioned by Tang et al.. Briefly, 5 × 10^6 colony-forming units (CFU)/mL of C. albicans were grown at 37 °C for 5 h in the RPMI 1640 medium containing 2C-L and 2C-FL, separately. The culture was further incubated for 48 h at 37 °C with shaking at 180 rpm. After harvesting and washing with PBS (pH 7.4), the fungus was digested with a lysis buffer. After digestion, apoptotic cell death was analyzed using an annexin V assay as per the published protocol. The fungal cell suspension was incubated with annexin V-FITC (50 µg/mL) and propidium iodide (PI; 200 µg/mL) in dark for 20 min at room temperature. The apoptotic and necrotic cells were scored by flow cytometry (MACSQuant, Germany).
(In general: Flow cytometry measures light scatter and fluorescence of single cells or particles in a stream.)

The nature of series [7]: Pharmacokinetics in healthy mice. The conditions noted are these: single dose, formulations 5 mg/kg b.w., free 2C 1 mg/kg b.w. The series is classed as in vivo. The method, then:
For pharmacokinetic studies, 2C-L and 2C-FL were administered to healthy mice. A single dose of 5 mg/kg body weight (b.w.) of the formulations was injected via the tail vein. Free 2C was administered in a single dose comprising 1 mg/kg b.w. Blood aliquots were collected using a non-mortality model at different periods, and serum was centrifuged out. […] Results are reported as the mean ± SD of three independent experiments.

Series [8] has as its system Candida albicans ATCC 66027, Candida spp. 12,810 (blood) and Candida spp. Details: method as in PMID 24513049. The settings on record: in vitro, series of substituted thiosemicarbazide derivatives; cited from earlier work.
The nature of series [9]: In vivo renal and hepatic toxicity (serum creatinine, ALT, total bilirubin). The settings on record: healthy mice. The method, then:
as §1

Where [10] appears, read: serum, post-dose, 400 µg formulation/dose/mouse i.p. on days 1, 3, 5.

For the compound `O=C(NNC(=S)Nc1ccc(Cl)cc1)c1ccncc1` [2C], the MIC (in general, the smallest concentration in the dilution series that meets the test's criterion for growth inhibition) in the series on C. albicans (ATCC 18804) amounted to 0.46 ± 0.05 µg/mL (≈ 1.5 µM). Besides, the solubility in water entry in series [1] is given as “insoluble in water”. The “toxicity to non-cancer cell lines” value with non-cancer cell lines was “minimal toxicity”. Besides, the LD50 in series [2] (healthy mice, intraperitoneal, mortality after 24 h) was 20 mg/kg b.w. Moreover, the “mortality at one-tenth of the LD50” value in series [2] (mice, 2 mg/kg b.w., three weeks of treatment) is “did not show any mortality”. In series [3], the “toxic effect on kidney histopathology” value is reported as “prominent toxicity”; the “toxic effect on liver histopathology” value was “focal lytic necrosis and enlarged sinusoids”. Besides, the hemolysis at 1 h, 10 mg/L in series [4] was determined as 100%. For the same compound, the “survival of treated mice till the 30th day” value in the series with C. albicans [5] amounted to 30%. Also, the necrosis entry in the series on C. albicans [6] is reported as “prominent increase”. In addition, the Cmax (as a rule, the peak of the concentration-time curve) in series [7] (Swiss albino, mouse, plasma, intravenous) was found to be 1400 ± 250 ng/mL. In series [7] (Swiss albino, mouse, plasma, intravenous, read-out: CL (plasma clearance) (converted)), the clearance (in general, a measure of how efficiently the substance is removed, as volume per time) is 1.28 mL/min. Also, the “AUC0–24” value in series [7] stood at 0.91 ± 0.17 µg/mL x h. Moreover, in series [8], the “anti-Candida activity within the series” value is on record as “most effective one”. In [9] (setting [10]), the “ALT, Day 6” value was determined as 45.1 ± 8.5 U/I; the “Creatinine, Day 6” value was found to be 0.34 ± 0.05 mg%; the “Total Bilirubin, Day 6” value is 0.21 ± 0.07. Further, in [9] (serum, pre-dose), the “ALT, Day 0” value came out at 40.9 ± 7.3 U/I; the “Creatinine, Day 0” value amounted to 0.29 ± 0.06 mg%; the “Total Bilirubin, Day 0” value was 0.15 ± 0.04. The “change in serum creatinine, ALT and bilirubin levels versus healthy control” value in [9] (sixth day) is recorded as “showed an increase”.

With `CCC(C)n1ncn(-c2ccc(N3CCN(c4ccc(OCC5COC(Cn6cncn6)(c6ccc(Cl)cc6Cl)O5)cc4)CC3)cc2)c1=O` (stereo not shown) [Itraconazole, itraconazole, reference compound], the MIC in the series with C. albicans (ATCC 18804) is 1.26 ± 0.71 µg/mL (≈ 1.79 µM).
